This note sets out measurements from paper PMC2288882 (The Journal of Cell Biology, 1991).

One may read the IC50 as the concentration that gives 50% inhibition.

Type in all cases: binding
For test [1], the target named is native Torpedo AChR (all four subunits) (Tetronarce californica, UniProt P02710+P02714+P02718). Particulars: extracts of oocytes expressing all four AChR subunits; Fig. 1 A.
In test [2] the target is Torpedo AChR αδ subunit combination (Tetronarce californica, UniProt P02710+P02718). The test is described as follows: biochemical.
Torpedo AChR αδ subunit combination, sequence (P02718 22-522): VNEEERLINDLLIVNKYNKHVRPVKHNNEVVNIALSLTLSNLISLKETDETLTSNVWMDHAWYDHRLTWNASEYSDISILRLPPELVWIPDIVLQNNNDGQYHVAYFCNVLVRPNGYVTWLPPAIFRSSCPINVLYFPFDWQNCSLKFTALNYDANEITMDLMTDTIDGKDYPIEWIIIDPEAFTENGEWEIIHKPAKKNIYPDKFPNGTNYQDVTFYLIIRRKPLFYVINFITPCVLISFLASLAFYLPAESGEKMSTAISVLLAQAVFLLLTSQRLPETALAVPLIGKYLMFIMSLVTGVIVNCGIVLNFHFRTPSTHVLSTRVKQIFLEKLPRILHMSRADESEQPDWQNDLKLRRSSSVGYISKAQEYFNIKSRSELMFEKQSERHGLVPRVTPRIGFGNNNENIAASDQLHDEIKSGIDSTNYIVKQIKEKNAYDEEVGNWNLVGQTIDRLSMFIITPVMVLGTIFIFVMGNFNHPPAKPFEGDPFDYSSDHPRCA
Torpedo AChR αδ subunit combination, sequence (P02710 25-461): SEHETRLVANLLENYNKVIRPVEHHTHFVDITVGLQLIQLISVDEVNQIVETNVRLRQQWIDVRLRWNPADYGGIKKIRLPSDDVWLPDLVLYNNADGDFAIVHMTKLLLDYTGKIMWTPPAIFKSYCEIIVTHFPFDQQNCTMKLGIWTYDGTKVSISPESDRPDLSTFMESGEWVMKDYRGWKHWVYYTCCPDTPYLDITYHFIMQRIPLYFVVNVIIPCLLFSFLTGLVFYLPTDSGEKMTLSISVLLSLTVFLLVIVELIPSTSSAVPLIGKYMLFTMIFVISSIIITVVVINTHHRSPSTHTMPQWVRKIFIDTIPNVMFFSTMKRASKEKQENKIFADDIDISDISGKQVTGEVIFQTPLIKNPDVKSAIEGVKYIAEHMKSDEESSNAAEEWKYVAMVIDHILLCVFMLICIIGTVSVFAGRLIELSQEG
The target of test [3] is Torpedo AChR αγ subunit combination (Tetronarce californica, UniProt P02710+P02714). Description: biochemical.
Torpedo AChR αγ subunit combination, sequence (P02710 25-461): as above
Torpedo AChR αγ subunit combination, sequence (P02714 18-506): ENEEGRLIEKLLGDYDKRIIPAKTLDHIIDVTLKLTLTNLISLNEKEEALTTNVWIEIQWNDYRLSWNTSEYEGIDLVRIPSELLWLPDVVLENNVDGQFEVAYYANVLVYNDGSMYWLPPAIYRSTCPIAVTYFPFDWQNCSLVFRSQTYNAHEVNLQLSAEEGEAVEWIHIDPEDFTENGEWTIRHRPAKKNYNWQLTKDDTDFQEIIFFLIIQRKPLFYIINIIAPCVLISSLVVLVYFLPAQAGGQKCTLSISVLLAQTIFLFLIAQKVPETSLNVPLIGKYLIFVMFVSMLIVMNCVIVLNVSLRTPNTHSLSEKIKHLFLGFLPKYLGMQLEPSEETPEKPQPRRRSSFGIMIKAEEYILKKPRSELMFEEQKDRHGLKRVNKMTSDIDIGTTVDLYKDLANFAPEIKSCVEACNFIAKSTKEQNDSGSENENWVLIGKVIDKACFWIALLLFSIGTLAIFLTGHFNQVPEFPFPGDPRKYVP

native Torpedo AChR (all four subunits), sequence (P02710 25-461): as the sequence (P02710 25-461) above
native Torpedo AChR (all four subunits), sequence (P02712 25-493, further chain): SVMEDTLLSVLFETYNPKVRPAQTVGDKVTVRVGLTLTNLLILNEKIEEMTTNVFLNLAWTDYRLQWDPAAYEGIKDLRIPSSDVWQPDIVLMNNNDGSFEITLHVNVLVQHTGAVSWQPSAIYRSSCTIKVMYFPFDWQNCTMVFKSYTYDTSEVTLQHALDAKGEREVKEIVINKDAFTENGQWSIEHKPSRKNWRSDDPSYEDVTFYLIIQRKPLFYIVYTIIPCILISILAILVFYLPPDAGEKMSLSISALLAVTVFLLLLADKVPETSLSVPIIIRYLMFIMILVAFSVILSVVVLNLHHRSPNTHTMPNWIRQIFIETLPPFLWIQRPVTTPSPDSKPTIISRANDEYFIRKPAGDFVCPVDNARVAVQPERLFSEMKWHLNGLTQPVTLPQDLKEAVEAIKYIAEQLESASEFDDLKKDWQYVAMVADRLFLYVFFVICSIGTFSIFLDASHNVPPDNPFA
native Torpedo AChR (all four subunits), sequence (P02718 22-522): as the sequence (P02718 22-522) above
native Torpedo AChR (all four subunits), sequence (P02714 18-506): as the sequence (P02714 18-506) above

On to `COc1cc2c3cc1Oc1cc(ccc1O)C[C@@H]1c4c(cc(OC)c(O)c4Oc4ccc(cc4)C[C@@H]3N(C)CC2)CC[N+]1(C)C` [curare], for which the “shape of curare inhibition curve of αBgt binding” value in test [1] was “biphasic curve”. Moreover, the IC50 in test [2] is 200 µM; in test [3], about 20 µM.
